Like-named read-outs stand apart in the source and are kept apart here.
Legend:
[1] = system: MRC-5 non-cancerous human lung fibroblast cell line; assay: In vitro antiproliferative MTT assay on MRC-5 (cancer selectivity); format: cell-based; conditions: for IC50: MRC5, Table 3, non-cancerous human lung fibroblasts, read-out: Calculated IC50 ± SEM, MRC-5; for Selectivity index SI = IC50 (MRC-5)/IC50 (U-87): MRC-5 vs U-87
Description: (§1) Gynecological cancer cell lines of human origin including breast cancer like the triple negative MDA-MB-231 and estrogen receptor positive MCF-7, […] cervical adenocarcinoma (HeLa), and human glioblastoma (U-87) cell lines were used as in vitro models to study the antiproliferative effects of the evaluated compounds. All cell lines were cultivated in T-75 flasks in a minimal essential medium (MEM) supplemented with 10% heat-inactivated fetal bovine serum (FBS), 1% antibiotic-antimycotic mixture (penicillin-streptomycin-amphotericin B) and 1% non-essential amino acids. Non-cancerous human lung fibroblast cell line (MRC-5) was maintained in low glucose Dulbecco’s Modified Eagle Medium (DMEM) supplemented with 20% heat-inactivated FBS, 1% antibiotic-antimycotic mixture and 4 mM L-glutamine. The cells were incubated at 37°C in 5% CO^2 incubator. The cells were seeded in 96-well plates at a density of 5 x 10^3 in 100 μL per well, except for the U-87 and MRC-5 that were seeded at 1 x 10^4 density and incubated at the same conditions for overnight to allow the cells’ attachment to the well’s bottom before the treatment.
(§2) The compounds were dissolved in dimethyl sulfoxide (DMSO) as 10 mM standard stock solutions and kept at -20°C with minimum light exposure. Immediately before each experiment, the stock solution was used and diluted with a culture medium to get the final concentrations. The values of half-maximal inhibitory concentration (IC50) were determined by exposure of the cells into eight different concentrations of each tested compound (0.39, 0.78, 1.56, 3.125, 6.25, 12.5, 25 and 50 μM). Temozolomide (TMZ) and cisplatin were used as positive controls in the case of U-87 and the gynecological cell lines, respectively. The negative control wells included the cells with only MEM treatment. The plates were incubated for up to 72 hours under the same abovementioned incubation conditions. The colorimetric MTT assay was used to assess the compounds’ effect on cell proliferation. Briefly, 20 μL of MTT solution ([3-(4,5-dimethylthiazol-2-yl)-2,5-diphenyltetrazolium bromide], 5 mg/mL in PBS, Duchefa Biochemie BV, Haarlem, The Netherlands) was added to each well including the negative controls and kept under the usual incubation circumstances for additional four hours. Subsequently, the media was carefully aspirated and 100 μL of DMSO was added to each well and the plates were gently shaken for 30 min to solubilize the precipitated crystals of purple formazan. Absorbance was measured at a wavelength of 545 nm using a microplate UV-VIS reader (SPECTROstar Nano, BMG Labtech GmbH, Offenburg, Germany). The same procedure was performed using MRC-5 cells to determine the cancer selectivity of the most promising test compounds.
(§3) Cell viability data were collected from two separate experiments in triplicates and evaluated using GraphPad Prism 9.5.1 (GraphPad Software Inc., San Diego, CA, USA). The half-maximal inhibitory concentration (IC50) values were determined using the log inhibitor vs normalized response nonlinear regression model. Difference between the IC50 values of a hybrid and its corresponding fragments’ experimental combination was statistically evaluated using unpaired T-test. Cancer selectivity of the most promising test compounds was characterized by calculating and comparing their selectivity index (SI). The value of the parameter derives from the ratio of IC50 value of test compound on MRC-5 cells and that on U-87 cells. The higher the value, the better the cancer selectivity of the test compound.

U-87 cells = assay: Combination assay: equimolar fragment mixtures vs hybrids on U-87; format: cell-based, human
Method: as §2
Combination study was performed by treating cells with equimolar mixtures of the abovementioned fragments or their hybrids, and corresponding cell viability data were comparatively evaluated. In this bioassay, at least two separate experiments were performed, each in triplicate. The dataset was then subjected to appropriate statistical analysis. The calculated IC50 values were subsequently employed to quantitatively assess the extent of pharmacological benefit obtained through the hybridization of fragments in comparison to the cytotoxic effect produced by the experimental combination of PA or its derivatives and TQ fragments.
as §3

MCF-7 = assay: In vitro antiproliferative MTT assay on MCF-7; format: cell-based, human; conditions: mean of two independent measurements with three replicates each, read-out: Calculated IC50 ± SEM, MCF-7
Description: as §1, §2, §3

MDA-MB-231 = assay: In vitro antiproliferative MTT assay on MDA-MB-231; format: cell-based, human; conditions: mean of two independent measurements with three replicates each, read-out: Calculated IC50 ± SEM, MDA-MB-231
Description: as §1, §2, §3

U-87 glioblastoma cells = assay: In vitro antiproliferative MTT assay on U-87; format: cell-based, human
Description: as §1, §2, §3

HeLa = assay: In vitro antiproliferative MTT assay on HeLa; format: cell-based, human; conditions: up to 72 hours, mean of two independent measurements with three replicates each, read-out: Calculated IC50 ± SEM, HeLa
Description: as §1, §2, §3

[2] = system: MDA-MB-231, MCF-7, HeLa, U-87; assay: In vitro antiproliferative MTT assay, cancer cell line panel; format: cell-based; conditions: Homo sapiens; all tested cancer cell lines; read-out: IC50 values against cancer cells (range over cell lines)
Description: Gynecological cancer cell lines of human origin including breast cancer like the triple negative MDA-MB-231 and estrogen receptor positive MCF-7, […] cervical adenocarcinoma (HeLa), and human glioblastoma (U-87) cell lines were used as in vitro models to study the antiproliferative effects of the evaluated compounds. All cell lines were cultivated in T-75 flasks in a minimal essential medium (MEM) supplemented with 10% heat-inactivated fetal bovine serum (FBS), 1% antibiotic-antimycotic mixture (penicillin-streptomycin-amphotericin B) and 1% non-essential amino acids. […]
The compounds were dissolved in dimethyl sulfoxide (DMSO) as 10 mM standard stock solutions and kept at -20°C with minimum light exposure. […] Absorbance was measured at a wavelength of 545 nm using a microplate UV-VIS reader (SPECTROstar Nano, BMG Labtech GmbH, Offenburg, Germany). […]
Cell viability data were collected from two separate experiments in triplicates and evaluated using GraphPad Prism 9.5.1 (GraphPad Software Inc., San Diego, CA, USA). The half-maximal inhibitory concentration (IC50) values were determined using the log inhibitor vs normalized response nonlinear regression model. Difference between the IC50 values of a hybrid and its corresponding fragments’ experimental combination was statistically evaluated using unpaired T-test. […]

[3] = Homo sapiens, MCF7, up to 72 hours
[4] = Homo sapiens, MDA-MB-231, up to 72 hours
[5] = Homo sapiens, MTT, up to 72 hours, mean of two independent measurements with three replicates each, read-out: Calculated IC50 ± SEM, U-87
[6] = Homo sapiens, Table 3, U-87 glioblastoma, read-out: Calculated IC50 ± SEM, U-87 (Table 3)

| IC50 (MCF-7; [3]) | IC50 (MDA-MB-231; [4]) | IC50 (U-87 glioblastoma cells; [5]) | IC50 (U-87 glioblastoma cells; [6]) | IC50 (HeLa; Homo sapiens, HeLa) | IC50 [2] | Compound | IC50 [1] | Selectivity index SI = IC50 (MRC-5)/IC50 (U-87) [1] | Hybrid vs corresponding 1:1 fragment mixture, antiproliferative activity in words (U-87 cells; U-87 cells) | Fold stronger activity of hybrid than 1:1 mixture of its fragments (U-87 cells; U-87 glioblastoma cells, hybrid vs mixture of fragments 4 and 6) | IC50 (MCF-7; up to 72 hours) | IC50 (MDA-MB-231; up to 72 hours) | IC50 (U-87 glioblastoma cells; MTT, up to 72 hours, mean of two independent measurements with three replicates each, read-out: Calculated IC50 ± SEM, U-87) | IC50 (HeLa) |
| --- | --- | --- | --- | --- | --- | --- | --- | --- | --- | --- | --- | --- | --- | --- |
| 1.2 ± 0.03 µM | 0.52 ± 0.02 µM | 1.16 ± 0.2 µM | 1.16 ± 0.2 µM | 1.06 ± 0.08 µM | 0.51 to 1.2 µM | CC1=CC(=O)C(C(C)C)=C(CCC(=O)Oc2cc(O)c3c(=O)cc(C4(O)C=CC(=O)C=C4)oc3c2)C1=O [Compound 14, 5-hydroxy-2-(1-hydroxy-4-oxocyclohexa-2,5-dien-1-yl)-4-oxo-4H-chromen-7-yl 3-(2-isopropyl-5-methyl-3,6-dioxocyclohexa-1,4-dien-1-yl)propanoate] | 5.1 ± 0.21 µM | 4.40 | synergism | ca. three |  |  |  |  |
| 2.5 ± 0.11 µM | 1.22 ± 0.03 µM | 1.73 ± 0.06 µM | 1.73 ± 0.06 µM | 2.83 ± 0.12 µM |  | CCOC1(c2cc(=O)c3c(O)cc(O)cc3o2)C=CC(=O)C=C1 [Compound 8] | 3.79 ± 0.25 µM | 2.19 |  |  |  |  |  |  |
| 3.21 ± 0.07 µM | 2.15 ± 0.08 µM | 8.22 ± 0.73 µM |  | 2.35 ± 0.15 µM |  | CCOC1(c2cc(=O)c3c(O)cc(OC(=O)CCC4=C(C)C(=O)C=C(C(C)C)C4=O)cc3o2)C=CC(=O)C=C1 [Compound 12, 2-(1-ethoxy-4-oxocyclohexa-2,5-dien-1-yl)-5-hydroxy-4-oxo-4H-chromen-7-yl 3-(5-isopropyl-2-methyl-3,6-dioxocyclohexa-1,4-dien-1-yl)propanoate] |  |  |  |  |  |  |  |  |
| 1.65 ± 0.07 µM | 1.27 ± 0.04 µM | 6.16 ± 0.49 µM |  | 2 ± 0.26 µM |  | CC1=C(CCC(=O)Oc2cc(O)c3c(=O)cc(C4(O)C=CC(=O)C=C4)oc3c2)C(=O)C(C(C)C)=CC1=O [Compound 10] |  |  |  |  |  |  |  |  |

Further lines, the molecule ahead of its results:

| Compound | IC50 (MCF-7; [3]) | IC50 (MDA-MB-231; [4]) | IC50 (U-87 glioblastoma cells; [5]) | IC50 (U-87 glioblastoma cells; [6]) | IC50 (HeLa; Homo sapiens, HeLa) | IC50 [2] | IC50 [1] | Selectivity index SI = IC50 (MRC-5)/IC50 (U-87) [1] | Hybrid vs corresponding 1:1 fragment mixture, antiproliferative activity in words (U-87 cells; U-87 cells) | Fold stronger activity of hybrid than 1:1 mixture of its fragments (U-87 cells; U-87 glioblastoma cells, hybrid vs mixture of fragments 4 and 6) | IC50 (MCF-7; up to 72 hours) | IC50 (MDA-MB-231; up to 72 hours) | IC50 (U-87 glioblastoma cells; MTT, up to 72 hours, mean of two independent measurements with three replicates each, read-out: Calculated IC50 ± SEM, U-87) | IC50 (HeLa) |
| --- | --- | --- | --- | --- | --- | --- | --- | --- | --- | --- | --- | --- | --- | --- |
| CCCCOC1(c2cc(=O)c3c(O)cc(OC(=O)CCC4=C(C(C)C)C(=O)C=C(C)C4=O)cc3o2)C=CC(=O)C=C1 [Compound 17, 2-(1-butoxy-4-oxocyclohexa-2,5-dien-1-yl)-5-hydroxy-4-oxo-4H-chromen-7-yl 3-(2-isopropyl-5-methyl-3,6-dioxocyclohexa-1,4-dien-1-yl)propanoate] | 2.7 ± 0.09 µM | 1.08 ± 0.08 µM | 8.65 ± 1.15 µM |  | 3.08 ± 0.46 µM |  |  |  |  |  |  |  |  |  |
| N.N.[Cl][Pt][Cl] [Cis, cisplatin, reference compound] |  |  |  |  |  |  |  |  |  |  | 6.55 ± 0.77 µM | 9.71 ± 0.51 µM | 9.13 ± 1.79 µM | 16 ± 2 µM |
| COC1(c2cc(=O)c3c(O)cc(O)cc3o2)C=CC(=O)C=C1 [Compound 7] | 3.95 ± 0.3 µM | 2.23 ± 0.13 µM | 7.03 ± 0.11 µM |  | 5.51 ± 0.21 µM |  |  |  |  |  |  |  |  |  |
| O=C1C=CC(O)(c2cc(=O)c3c(O)cc(O)cc3o2)C=C1 [Compound 6, Protoapigenone] | 0.66 ± 0.06 µM | 0.57 ± 0.07 µM | 1.73 ± 0.11 µM | 1.73 ± 0.11 µM | 1.8 ± 0.09 µM |  | 2.62 ± 0.2 µM | 1.51 |  |  |  |  |  |  |

From article PMC10810434, “Thymoquinone-protoflavone hybrid molecules as potential antitumor agents” (PLOS ONE, 2024)
